Laboratory results taken from article PMC3234597, “Two Panels of Steroid Receptor Luciferase Reporter Cell Lines for Compound Profiling” (Combinatorial Chemistry & High Throughput Screening, 2011).

How the values were obtained:
Format in all cases: cell-based
human ERβ (full-length) = biological target: T1, human ERβ (full-length) (Homo sapiens, UniProt Q92731); assay: U2OS-ERβ/3xERE luciferase reporter cell line (full-length receptor); conditions: read-out: Log EC50 (converted)
T1 construct: expression vectors encoding full-length steroid receptors: pcDNA3-hERα and pcDNA3-ERβ; expressed in transfected cells; host or cells: U2OS

[1] = biological target: T2, ERβ-LBD fused to Gal4-DBD (Homo sapiens, UniProt Q92731); assay: U2OS-ERβ-LBD/9xGal4UAS luciferase reporter cell line; conditions: read-out: Log EC50 (converted)
T2 construct: region comprising ERβ-LBD and a piece of the hinge region; expressed in transfected cells; host or cells: U2OS

human AR (full-length) [2] = biological target: T3, human AR (full-length) (Homo sapiens, UniProt P10275); assay: U2OS-AR/3xGRE luciferase reporter cell line (full-length receptor)
T3 construct: expression vectors encoding full-length steroid receptors: pcDNA3-hAR and pcDNA3-hGR; host or cells: U2OS
T3 sequence (P10275 1-920): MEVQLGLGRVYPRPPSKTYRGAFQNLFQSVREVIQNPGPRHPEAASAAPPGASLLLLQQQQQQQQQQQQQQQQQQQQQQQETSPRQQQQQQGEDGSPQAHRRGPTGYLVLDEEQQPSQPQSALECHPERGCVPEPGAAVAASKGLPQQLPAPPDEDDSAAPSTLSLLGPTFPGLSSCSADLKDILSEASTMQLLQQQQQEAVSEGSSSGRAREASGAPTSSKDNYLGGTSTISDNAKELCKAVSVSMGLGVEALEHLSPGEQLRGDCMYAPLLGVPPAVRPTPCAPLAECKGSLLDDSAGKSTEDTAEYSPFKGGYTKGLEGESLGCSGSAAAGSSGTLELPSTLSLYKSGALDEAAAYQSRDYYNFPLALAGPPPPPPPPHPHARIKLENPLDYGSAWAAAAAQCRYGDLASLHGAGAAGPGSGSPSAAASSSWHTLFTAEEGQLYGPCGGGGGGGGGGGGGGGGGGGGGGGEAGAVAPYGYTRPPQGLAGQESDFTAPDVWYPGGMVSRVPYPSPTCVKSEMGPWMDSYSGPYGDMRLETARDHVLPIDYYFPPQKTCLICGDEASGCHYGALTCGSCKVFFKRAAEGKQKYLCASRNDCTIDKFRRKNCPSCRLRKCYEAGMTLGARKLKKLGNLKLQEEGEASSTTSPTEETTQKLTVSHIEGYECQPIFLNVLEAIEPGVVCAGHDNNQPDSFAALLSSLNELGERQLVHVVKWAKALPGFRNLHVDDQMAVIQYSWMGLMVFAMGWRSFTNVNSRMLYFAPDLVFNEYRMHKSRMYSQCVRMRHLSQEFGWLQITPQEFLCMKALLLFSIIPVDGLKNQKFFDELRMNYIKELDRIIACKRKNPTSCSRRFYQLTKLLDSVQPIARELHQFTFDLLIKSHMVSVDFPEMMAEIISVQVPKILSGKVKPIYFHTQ

human AR (full-length) [3] = biological target: T3, human AR (full-length); assay: U2OS-AR/MMTV luciferase reporter cell line (full-length receptor)
[4] = biological target: T4, AR-LBD fused to Gal4-DBD (co-expressed with full-length AR) (Homo sapiens, UniProt P10275); assay: U2OS-AR-LBD/9xGal4UAS luciferase reporter cell line
T4 construct: the following primers were used for the amplification of the LBD region; expressed in transfected cells; host or cells: U2OS
T4 sequence (P10275 669-900 limits assumed): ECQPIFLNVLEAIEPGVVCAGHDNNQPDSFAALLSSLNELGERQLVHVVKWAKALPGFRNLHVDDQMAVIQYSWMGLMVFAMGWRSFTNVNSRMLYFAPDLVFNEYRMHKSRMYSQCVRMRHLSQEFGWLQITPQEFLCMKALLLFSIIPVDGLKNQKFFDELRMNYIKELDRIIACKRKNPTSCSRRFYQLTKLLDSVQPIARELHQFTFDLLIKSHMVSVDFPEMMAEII

human MR (full-length) = biological target: T5, human MR (full-length) (Homo sapiens, UniProt P08235); assay: U2OS-MR/MMTV luciferase reporter cell line (full-length receptor); conditions: read-out: Log EC50 (converted)
T5 construct: expression vectors encoding full-length steroid receptors: pcDNA3-hAR, pcDNA3-hGR and pcDNA3-hMR; expressed in transfected cells; host or cells: U2OS
T5 sequence (P08235 1-984): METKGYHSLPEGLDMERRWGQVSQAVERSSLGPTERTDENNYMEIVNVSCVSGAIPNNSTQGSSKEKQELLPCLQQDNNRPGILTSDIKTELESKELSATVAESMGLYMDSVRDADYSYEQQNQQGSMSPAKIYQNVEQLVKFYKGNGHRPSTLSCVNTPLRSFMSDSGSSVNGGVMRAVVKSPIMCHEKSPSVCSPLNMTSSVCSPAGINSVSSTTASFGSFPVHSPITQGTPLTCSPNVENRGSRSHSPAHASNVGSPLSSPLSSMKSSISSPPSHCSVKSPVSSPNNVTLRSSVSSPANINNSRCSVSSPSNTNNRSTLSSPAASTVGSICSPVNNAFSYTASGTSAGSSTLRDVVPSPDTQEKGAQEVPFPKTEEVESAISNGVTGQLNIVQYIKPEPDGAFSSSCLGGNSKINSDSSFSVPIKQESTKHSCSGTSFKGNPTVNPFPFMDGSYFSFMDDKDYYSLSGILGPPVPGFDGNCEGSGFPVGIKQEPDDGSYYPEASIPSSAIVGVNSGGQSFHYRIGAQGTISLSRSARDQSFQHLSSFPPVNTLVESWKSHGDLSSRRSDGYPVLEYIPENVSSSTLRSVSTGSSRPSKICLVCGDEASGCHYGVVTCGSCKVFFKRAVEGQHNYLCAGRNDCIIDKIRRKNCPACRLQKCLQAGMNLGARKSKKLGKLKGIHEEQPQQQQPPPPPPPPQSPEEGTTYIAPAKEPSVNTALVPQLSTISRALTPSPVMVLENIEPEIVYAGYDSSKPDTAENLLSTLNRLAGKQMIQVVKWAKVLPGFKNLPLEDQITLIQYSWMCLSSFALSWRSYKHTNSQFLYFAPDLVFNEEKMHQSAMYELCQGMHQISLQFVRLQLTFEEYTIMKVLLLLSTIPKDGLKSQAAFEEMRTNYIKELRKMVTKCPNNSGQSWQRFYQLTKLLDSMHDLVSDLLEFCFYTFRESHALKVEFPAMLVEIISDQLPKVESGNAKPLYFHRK

MR-LBD fused to Gal4-DBD = biological target: T6, MR-LBD fused to Gal4-DBD (Homo sapiens, UniProt P08235); assay: U2OS-MR-LBD/9xGal4UAS luciferase reporter cell line; conditions: read-out: Log EC50 (converted)
T6 construct: MR-LBD was cloned by RT-PCR from total RNA isolated from HEK293 cells; expressed in transfected cells; host or cells: U2OS
T6 sequence (P08235 726-964 limits assumed): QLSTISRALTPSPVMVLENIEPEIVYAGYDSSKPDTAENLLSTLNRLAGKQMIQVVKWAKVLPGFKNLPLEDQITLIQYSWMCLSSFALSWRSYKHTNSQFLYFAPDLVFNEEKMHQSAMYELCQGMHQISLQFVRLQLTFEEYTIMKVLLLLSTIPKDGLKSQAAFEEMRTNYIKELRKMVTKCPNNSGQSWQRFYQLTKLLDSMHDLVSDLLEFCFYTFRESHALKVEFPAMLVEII

PR-LBD fused to Gal4-DBD = biological target: T7, PR-LBD fused to Gal4-DBD (Homo sapiens, UniProt P06401); assay: U2OS-PR-LBD/9xGal4UAS luciferase reporter cell line
T7 construct: PR-LBD region was PCR amplified using the following primer combination; host or cells: U2OS
T7 sequence (P06401 679-913 limits assumed): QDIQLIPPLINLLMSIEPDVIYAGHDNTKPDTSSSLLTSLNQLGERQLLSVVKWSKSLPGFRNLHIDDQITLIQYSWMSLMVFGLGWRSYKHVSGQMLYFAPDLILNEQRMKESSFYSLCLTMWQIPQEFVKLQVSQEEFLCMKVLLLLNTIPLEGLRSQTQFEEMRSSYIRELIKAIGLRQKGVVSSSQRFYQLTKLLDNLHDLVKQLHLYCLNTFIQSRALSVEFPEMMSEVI

T2 sequence (Q92731 264-498 limits assumed): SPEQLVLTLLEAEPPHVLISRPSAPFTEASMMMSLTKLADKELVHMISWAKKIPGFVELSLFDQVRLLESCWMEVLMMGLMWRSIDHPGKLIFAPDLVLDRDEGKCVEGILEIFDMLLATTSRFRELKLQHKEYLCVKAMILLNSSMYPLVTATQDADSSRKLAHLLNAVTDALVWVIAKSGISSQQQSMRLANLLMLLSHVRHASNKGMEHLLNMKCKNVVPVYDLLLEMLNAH
T1 sequence (Q92731 whole entry): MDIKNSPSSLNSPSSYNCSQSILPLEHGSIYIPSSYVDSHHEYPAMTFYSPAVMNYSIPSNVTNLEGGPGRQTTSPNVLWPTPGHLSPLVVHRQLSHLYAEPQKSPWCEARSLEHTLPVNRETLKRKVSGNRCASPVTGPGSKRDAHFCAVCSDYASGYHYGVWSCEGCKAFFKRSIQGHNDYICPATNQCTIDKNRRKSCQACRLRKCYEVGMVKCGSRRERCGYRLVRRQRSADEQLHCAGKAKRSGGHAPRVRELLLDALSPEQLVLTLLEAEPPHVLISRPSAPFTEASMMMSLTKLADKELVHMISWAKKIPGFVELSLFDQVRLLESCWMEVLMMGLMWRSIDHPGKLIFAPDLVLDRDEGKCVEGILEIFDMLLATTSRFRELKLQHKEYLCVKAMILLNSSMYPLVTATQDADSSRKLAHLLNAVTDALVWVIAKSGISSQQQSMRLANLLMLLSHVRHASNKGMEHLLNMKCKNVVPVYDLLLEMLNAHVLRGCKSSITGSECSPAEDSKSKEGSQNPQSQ

EC50 (human ERβ (full-length)): > 10 µM
EC50 [1]: > 10 µM
EC50 (human AR (full-length) [2]): > 10 µM
EC50 (human AR (full-length) [3]): > 10 µM
IC50 (human AR (full-length) [3]): > 10 µM
EC50 [4]: > 10 µM
IC50 [4]: > 10 µM
EC50 (human MR (full-length)): 6.31 nM
EC50 (MR-LBD fused to Gal4-DBD): 11.2 nM
IC50 (PR-LBD fused to Gal4-DBD; antagonist mode, PR-LBD/9xGal4UAS, log10 of molar IC50, mean ± SEM, read-out: Log IC50 (converted)): > 10 µM
EC50 (PR-LBD fused to Gal4-DBD; read-out: Log EC50 (converted)): 6.17 µM
Structure (SMILES): C[C@]12CCC(=O)C=C1CC[C@@H]1[C@@H]2[C@@H](O)C[C@@]2(C)[C@H]1CC[C@]2(O)C(=O)CO [Cortisol, cortisol]
